Reference: patent US4443619A, “Chlorocitric acids” (Hoffmann-La Roche Inc., priority 1981, dated 1984)

Assay: Total body fat in meal-fed rats, oral administration, 17 day study (Example 22)
Type: in vivo, Charles River female rats
Settings: 17 days
Procedure: Two month old Charles River female rats (Charles River Breeding Laboratories, Wilmington, Mass.) were individually housed in wire-bottomedcages in a temperature-regulated (22° C.) light-controlled room (12 hr light, 6 a.m. to 6 p.m. and 12 hr dark, 6 p.m. to 6 a.m.). […] On the 8th day, the animals were administered water or (-)-threo-chlorocitric acid at the indicated concentration by oral intubation 30 min before the 3 hr meal. Treatment was continued for 17 days. Food cups were weighed immediately after the meal. After 17 days of treatment, rats were killed by decapitation and blood was removed. […] C. Sullivan, et al, Am. J. Clinical Nutrition, 30 767 (1977). […] Total carcass and lipid data are expressed in grams and percentages of carcass weight.

[1] = G-70, 0.05 mmoles (114 mg)/kg oral (so in the source)
[2] = G-70, 0.25 mmoles (57 mg)/kg oral
[3] = G-70, 1.00 mmoles (227 mg)/kg oral

For `O=C(O)C[C@@](O)(C(=O)O)[C@@H](Cl)C(=O)O` [(-)-threo-Chlorocitric acid, (-)-threo-chlorocitric acid], the “Carcass Lipid (% carcass), % of control” value [1] was 82 % of control, the “Carcass Lipid total, % of control” value [1] was 67 % of control and the “Carcass Lipid, % carcass” value [1] was 4.43 ± 0.56 % carcass. The “Carcass Lipid, total” value [1] was 7.85 ± 1.03 g, the “Carcass Weight” value [1] was 177 ± 2 g and the “Carcass Lipid (% carcass), % of control” value [2] was 84 % of control. The “Carcass Lipid total, % of control” value [2] was 76 % of control, the “Carcass Lipid, % carcass” value [2] was 4.58 ± 0.09 % carcass and the “Carcass Lipid, total” value [2] was 8.98 ± 0.30 g. The “Carcass Weight” value [2] was 196 ± 4 g, the “Carcass Lipid (% carcass), % of control” value [3] was 64 % of control and the “Carcass Lipid total, % of control” value [3] was 50 % of control. For the same compound, the “Carcass Lipid, % carcass” value [3] was 3.48 ± 0.68 % carcass, the “Carcass Lipid, total” value [3] was 5.95 ± 1.28 g and the “Carcass Weight” value [3] was 169 ± 6 g.
